Assay results from ChEMBL document CHEMBL4725289, “Structure-activity relationship studies for the development of inhibitors of murine adipose triglyceride lipase (ATGL)” (Bioorg Med Chem, 2020).

Tests used:
[1] = molecular target: T1, Patatin-like phospholipase domain-containing protein 2 (Mus musculus) (UniProt Q8BJ56); assay: Inhibition of murine ATGL expressed in COS-7 cells at 200 uM relative to control; type: cell-based
T1 sequence (whole entry): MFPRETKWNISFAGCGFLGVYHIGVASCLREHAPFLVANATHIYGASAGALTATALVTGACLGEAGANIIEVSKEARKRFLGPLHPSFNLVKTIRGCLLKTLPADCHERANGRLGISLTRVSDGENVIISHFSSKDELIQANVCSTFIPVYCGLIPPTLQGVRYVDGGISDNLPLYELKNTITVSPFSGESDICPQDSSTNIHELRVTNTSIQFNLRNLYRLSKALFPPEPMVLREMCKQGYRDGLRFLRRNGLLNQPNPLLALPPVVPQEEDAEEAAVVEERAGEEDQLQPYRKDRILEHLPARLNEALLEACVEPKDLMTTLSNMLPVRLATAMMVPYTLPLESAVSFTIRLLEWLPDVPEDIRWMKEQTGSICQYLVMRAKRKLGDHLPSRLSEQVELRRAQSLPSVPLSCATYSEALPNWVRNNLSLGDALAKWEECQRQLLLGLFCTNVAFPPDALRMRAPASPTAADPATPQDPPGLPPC

[2] = molecular target: T2, Patatin-like phospholipase domain-containing protein 2 (Mus musculus, UniProt Q8BJ56); assay: Inhibition of murine ATGL expressed in COS-7 cells; type: cell-based
T2 sequence (Q8BJ56 whole entry): T1 sequence (whole entry)

[3] = molecular target: T1, Patatin-like phospholipase domain-containing protein 2 (Mus musculus); assay: Inhibition of recombinant murine ATGL expressed in Escherichia coli XL-1 lysates at 200 uM relative to control; type: subcellular
[4] = molecular target: T2, Patatin-like phospholipase domain-containing protein 2; assay: Inhibition of recombinant murine ATGL expressed in Escherichia coli XL-1 lysates; type: subcellular

Structure (SMILES)	inhibition [1]	IC50 [2]	inhibition [3]	IC50 [4]
CN(C)c1ccc(-c2cccc(NC(=O)Oc3ccccc3)c2)cc1	75%	73 µM		
CCOc1ccc(-c2cccc(C(=O)N3CCCC3)c2)cc1	53%	160 µM		
CCOC(=O)c1cccc(-c2ccc3c(c2)CCN3)c1	66%	120 µM		
CCOc1ccc(-c2cccc(NC(=O)N(C)C)c2)cc1	68%	70 µM	83%	9 µM
CCOc1ccc(-c2cccc(C(=O)NC)c2)cc1	40%	> 200 µM		
CCOC(=O)c1cccc(-c2ccc(CN(C)C)cc2)c1	67%	150 µM		
CCOC(=O)c1cccc(-c2ccc3[nH]ccc3c2)c1	80%	60 µM		
CCOc1ccc(-c2cccc(S(=O)(=O)N(C)C)c2)cc1	63%	110 µM		
CCOC(=O)c1cc(-c2ccc(OCC)cc2)ccn1	72%	105 µM		
CN(C)c1ccc(-c2cccc([N+](=O)[O-])c2)cc1	21%	> 200 µM		
CCOC(=O)c1ccc(-c2ccc(OCC)cc2)[nH]1	44%	> 200 µM		
CCOC(=O)N(C)c1cccc(-c2ccc(N(C)C)cc2)c1	20%	> 200 µM		
CN(C)c1ccc(-c2cccc(NC(=O)OCc3ccccc3)c2)cc1	50%	> 200 µM		
CCOC(=O)c1cccc(-c2ccc(C(C)N(C)C)cc2)c1 (stereo unspecified)	50%	200 µM	9%	200 µM
CCOC(=O)c1cccc(-c2ccc(C(C)N3CCN(C)CC3)cc2)c1 (stereo unspecified)	69%	90 µM	30%	200 µM
CCOc1ccc(-c2ccccc2)cc1	35%	> 200 µM		
CCOC(=O)c1cccc(-c2ccc(C(=O)CN(C)C)cc2)c1	20%	200 µM	4%	200 µM
CN(C)c1ccc(-c2cccc(N)c2)cc1	70%	100 µM		
CN(C)c1ccc(-c2cccc(NC(=O)C(C)(C)C)c2)cc1	25%	> 200 µM		
CCOC(=O)c1cccc(-c2ccc3c(ccn3C)c2)c1	84%	75 µM		
CCOc1ccc(-c2cccc(C(=O)Oc3ccc([N+](=O)[O-])cc3)c2)cc1	56%	150 µM		
CCOC(=O)C1CCCC(c2ccc(OCC)cc2)N1 (stereo unspecified)	48%	> 200 µM		
CCOC(=O)c1cccc(-c2ccc(OCC)cc2)n1	79%	60 µM		

Structure (SMILES)	inhibition [1]	IC50 [2]	inhibition [3]	IC50 [4]
CCOC(=O)c1cccc(-c2ccc(OCC)cc2)c1	87%	50 µM		
CC(C)COC(=O)Nc1cccc(-c2ccc(N(C)C)cc2)c1	90%	22 µM		
CCOC(=O)c1cccc(-c2ccc(OCC)nc2)c1	68%	130 µM		
CN(C)C(=O)N(C)c1cccc(-c2ccc(N(C)C)cc2)c1	74%	70 µM		
CCOC(=O)c1cccc(-c2ccc(CN3CCCCC3)cc2)c1	68%	75 µM		
CCOC(=O)c1ccc(-c2ccc(OCC)cc2)o1	93%	50 µM		
CCOC(=O)c1cccc(-c2ccc(C)cc2)c1	63%	140 µM		
COC(=O)Nc1cccc(-c2ccc(N(C)C)cc2)c1	95%	5 µM		
CCOc1ccc(-c2cccc(C(=O)OCCOC)c2)cc1	89%	70 µM		
CCOC(=O)c1cccc(-c2ccc([N+](=O)[O-])cc2)c1	63%	95 µM		
CCNC(=O)c1cccc(-c2ccc(OCC)cc2)c1	62%	90 µM		
CCOC(=O)c1cccc(-c2ccc(CN3CCCC3)cc2)c1	33%	> 200 µM		
CCOc1ccc(-c2cccc([N+](=O)[O-])c2)cc1	35%	> 200 µM		
CCOC(=O)c1cccc(-c2ccc(CN3CCN(C)CC3)o2)c1	67%	120 µM		
CCOC(=O)c1cccc(-c2ccc(OCC)c([N+](=O)[O-])c2)c1	44%	200 µM		
CCOc1ccc(-c2cccc(C(=O)OCC(F)(F)F)c2)cc1	71%	120 µM		
CCOc1ccc(-c2cccc(NC(C)=O)c2)cc1	52%	200 µM		
CCOC(=O)c1cccc(-c2ccc(CN3CCN(S(C)(=O)=O)CC3)cc2)c1	68%	100 µM	68%	100 µM
CCOc1ccc(-c2cccc(N)c2)cc1	65%	100 µM		
CCOc1ccc(-c2cccc(C)c2)cc1	54%	70 µM		
CCOC(=O)c1cccc(-c2cccs2)c1	55%	90 µM		
CCOC(=O)c1cn(-c2ccc(OCC)cc2)nn1			43%	> 200 µM
CCOC(=O)c1cccc(-c2ccc(Br)cc2)c1			34%	> 200 µM

Structure (SMILES)	inhibition [1]	IC50 [2]	inhibition [3]	IC50 [4]
CCCCOC(=O)c1cccc(-c2ccc(OCC)cc2)c1	61%	100 µM		
CCOC(=O)c1cccc(-c2ccsc2)c1	67%	75 µM		
CCOC(=O)c1cccc(-c2ccc(CN(C)C)o2)c1	53%	190 µM		
CCOC(=O)c1ccnc(-c2ccc(OCC)cc2)c1	87%	80 µM		
CC(C)OC(=O)Nc1cccc(-c2ccc(N(C)C)cc2)c1	69%	82 µM		
CCOC(=O)c1cccc(-c2ccncc2)c1	40%	> 200 µM		
CCOc1ccc(-c2cccc(S(=O)(=O)NC)c2)cc1	47%	200 µM		
CCOc1ccc(-c2cccc(C(=O)OCCOCCOC)c2)cc1	43%	> 200 µM		
CCOC(=O)c1cccc(-c2ccc(O)cc2)c1	77%	100 µM		
CCOc1ccc(-c2cccc(C(=O)O)c2)cc1	23%	> 200 µM		
CN(C)c1ccc(-c2cccc(NC(=O)N3CCOCC3)c2)cc1	31%	> 200 µM		
CCOC(=O)c1cccc(-c2ccc(C(C)=O)cc2)c1	36%	200 µM	17%	200 µM
CCOC(=O)c1ccc(-c2ccc(OCC)cc2)s1	81%	70 µM		
CCOC(=O)c1cccc(-c2ccc(CN3CCN(S(C)(=O)=O)CC3)o2)c1	66%	100 µM		
CCOC(=O)c1cccc(-c2ccc(OC)cc2)c1	77%	80 µM		
CCOC(=O)c1cncc(-c2ccc(OCC)cc2)c1	70%	130 µM		
CCNS(=O)(=O)c1cccc(-c2ccc(OCC)cc2)c1	46%	200 µM		
CCOC(=O)c1cccc(-c2ccccc2)c1	52%	200 µM		
CCCCCCOC(=O)c1cccc(-c2ccc(OCC)cc2)c1	48%	> 200 µM		
CCOC(=O)Nc1cccc(-c2ccc(N(C)C)cc2)c1	93%	3 µM		
CCOC(=O)c1cccc(-c2ccc(OCC)c(N)c2)c1	59%	140 µM		
